Experimental data taken from ChEMBL document CHEMBL1156829 (Proc Natl Acad Sci U S A, 2008).

Assays:
Plasmodium falciparum [1] = test: NOVARTIS: Inhibition of Plasmodium falciparum 3D7 (drug-susceptible) proliferation in erythrocyte-based infection assay; assay type: functional, organism-based; details: Plasmodium falciparum, 3D7
Plasmodium falciparum [2] = test: NOVARTIS: Inhibition of Plasmodium falciparum W2 (drug-resistant) proliferation in erythrocyte-based infection assay; assay type: functional, organism-based; details: Plasmodium falciparum, W2; read-out: EC50
[3] = NOVARTIS: Cytotoxicity against human hepatocellular carcinoma cell line (Huh7); assay type: toxicity, cell-based, Huh-7; details: Huh7 cells (hepatocellular carcinoma cell line)

Row | SMILES | EC50 (Plasmodium falciparum [1]) | EC50 (Plasmodium falciparum [2]) | CC50 [3]
1 | c1ccc(C[n+]2ccc(-c3nc4ccccc4s3)cc2)cc1 | 1850 nM | 1480 nM | > 100000 nM
2 | Brc1ccc(C=Cc2cc[n+](Cc3ccccc3)cc2)cc1 | 139 nM | 103 nM | 47300 nM
3 | CCCC(=O)N1c2ccc(OC)cc2-c2c(ssc2=S)C1(C)C | 791 nM | 867 nM | > 100000 nM
4 | O=C(Cc1ccccc1)N1CCOc2c(cc(-c3csc4ccccc34)cc2OCCc2ccccn2)C1 | 257 nM | 165 nM | > 100000 nM
5 | CCc1c2ccc(C)n2cc[n+]1CC | 610 nM | 749 nM | > 100000 nM
6 | C=CCNC(=O)CSc1ccc(C(=O)Nc2ccc(Cl)cc2F)cc1[N+](=O)[O-] | > 1170 nM | > 1630 nM | > 10000 nM
7 | CCOC(=O)C1=C(C)NC2=C(C(=O)CC(c3ccc(OC)c(OC)c3)C2)C1c1cccc(Br)c1 (stereo not given) | 171 nM | 65.9 nM | > 100000 nM
8 | CCCC(=O)NC(c1cccc([N+](=O)[O-])c1)c1ccc2cccnc2c1O (stereo not given) | 320 nM | 125 nM | 38800 nM
9 | CCOC(=O)c1[nH]c(C)c(CNc2cccc(F)c2)c1C | 1060 nM | 1660 nM | > 10000 nM
10 | COc1cc(OC)cc(C(=O)NCC2Cc3cc(Cl)cc(-c4ccncc4)c3O2)c1 (stereo not given) | 368 nM | 537 nM | 44100 nM
11 | CC(C)CN(CC(=O)N1CCC(Nc2nsc3ccccc23)C1)S(C)(=O)=O (stereo not given) | 1980 nM | 3940 nM | 15700 nM
12 | CCc1n(CC(=O)OC2CC(C)CCC2C(C)C)c2ccccc2[n+]1C (stereo not given) | 267 nM | 203 nM | 29900 nM
13 | COc1cc(OC)cc(-n2c(=O)c3sccc3n(CC(=O)c3ccc(F)cc3)c2=O)c1 | > 1250 nM | > 1170 nM | > 10000 nM
14 | CC(=O)Nc1ccc(N2C(=O)CSC2c2ccc(Br)cc2)cc1 (stereo not given) | 2330 nM | 865 nM | > 100000 nM
15 | CN(C)c1ccc(N=C2NC(=O)/C(=C/c3ccc(Cl)cc3)S2)cc1 | 819 nM | 1460 nM | > 10000 nM
16 | CCC(=O)N=c1sc2cc([N+](=O)[O-])ccc2n1CCOC | > 686 nM | > 1250 nM | > 10000 nM
17 | CCCCc1ccc(C(=O)N(CCc2ccccc2)C(CC)c2nc3ccccc3c(=O)n2-c2ccccc2OC)cc1 (stereo not given) | 311 nM | 354 nM | > 6270 nM
18 | CCn1c(SCc2ccc([N+](=O)[O-])cc2)nc2sc3c(c2c1=O)CCN(C)C3 | 470 nM | 808 nM | > 100000 nM
19 | CCn1nc(/C=C/c2ccccc2)nc2c(=O)n(C)c(=O)nc1-2 | > 3330 nM | > 10000 nM | 42000 nM
20 | Brc1ccc(-c2cn3c([n+]2Cc2ccccc2)SCCC3)cc1 | 413 nM | 2450 nM | 53300 nM
21 | Cc1onc(-c2ccccc2)c1C(=O)N1CCC(CNc2c(-c3ccoc3)nc3ccccn23)CC1 | 1760 nM | 225 nM | 96600 nM
22 | Cc1nc(-c2cnccc2C(F)(F)F)sc1C(=O)NN | > 11000 nM | 1390 nM | > 100000 nM
23 | N#C/C(=C\c1cn(Cc2ccc(Cl)cc2Cl)c2ccccc12)c1nc2ccccc2[nH]1 | 315 nM | 1150 nM | > 10000 nM
24 | CCN1CCN(C2CCN(Cc3cc4ccc(F)cc4n(CCSc4ccccc4)c3=O)CC2)CC1 | 715 nM | 560 nM | 5480 nM

Row | SMILES | EC50 (Plasmodium falciparum [1]) | EC50 (Plasmodium falciparum [2]) | CC50 [3]
25 | CCC1CN2CCc3cc(OC)c(OC)cc3C2CC1CC1NCCc2cc(OC)c(OC)cc21 (stereo not given) | 35.7 nM | 36 nM | 23700 nM
26 | CCC(C)OC(=O)C1=C(C)NC2=C(C(=O)CC(c3ccc(Cl)cc3)C2)C1c1ccccc1F (stereo not given) | 205 nM | 58.3 nM | > 100000 nM
27 | CCCCCn1c(SCc2ccc(C)cc2)nc2cc(C(=O)NCc3ccco3)ccc2c1=O | > 12500 nM | 3160 nM | > 100000 nM
28 | O=C(Nc1ccc2c3c(cccc13)CC2)c1cccc2ccccc12 | > 1200 nM | > 1250 nM | > 10000 nM
29 | Oc1ncnc2c1C(c1ccccc1)c1c(O)ncnc1O2 | > 882 nM | > 462 nM | > 8830 nM
30 | COc1cc(C=C(C#N)c2nc3ccccc3[nH]2)ccc1OCc1ccc(C)cc1 | 684 nM | 328 nM | > 100000 nM
31 | CN(C)c1ccc(N2C(N)=NC(N)=NC2(C)C)cc1 | 18.8 nM | > 1250 nM | > 10000 nM
32 | N#Cc1ccccc1Cn1nc(-c2cccnc2)oc1=O | > 12500 nM | 2380 nM | > 100000 nM
33 | CCN(C(=O)CSc1nc(-c2ccc(C(C)C)cc2)no1)c1cccc(C)c1 | 356 nM | 183 nM | > 100000 nM
34 | CC(=O)C(=NNc1cc(C(F)(F)F)cc(C(F)(F)F)c1)C(C)=O | > 1250 nM | 26.7 nM | > 10000 nM
35 | O=C(CSc1nc2ccccc2[nH]1)Nc1ccc2c(c1)OCO2 | > 1250 nM | > 1040 nM | > 10000 nM
36 | CCOC(=O)c1nnn(-c2nonc2N)c1-c1ccc(OC)cc1 | 653 nM | 564 nM | > 100000 nM
37 | Clc1cc(N2CCCCC2)c(Cl)nn1 | > 1250 nM | > 892 nM | > 10000 nM
38 | COc1cc(NCCCC(C)N)c2ncccc2c1 (stereo not given) | 215 nM | 418 nM | 14400 nM
39 | CCN(CC)c1ccc2cc(C(C)=NNC(N)=S)c(=O)oc2c1 | 4310 nM | 7460 nM | > 100000 nM
40 | C(=NNc1nc2ccccc2[nH]1)c1ccc2c(c1)OCO2 | 184 nM | 289 nM | > 100000 nM
41 | CC(C)CN(CC(=O)Nc1cc(C(C)(C)C)nn1-c1ccccc1)C(=O)COc1ccccc1 | 773 nM | 432 nM | 17600 nM
42 | CCCn1cc(SCC(=O)NCc2ccco2)c2ccccc21 | 1020 nM | 673 nM | > 100000 nM
43 | O=C(NCCCCNc1ccnc2cc(Cl)ccc12)C1CCCC1 | 409 nM | 485 nM | > 10000 nM
44 | CC(C)(C)C1=NN(CC(=O)NCCc2c[nH]cn2)C(=O)c2cc3ccccc3n2C1 | > 1250 nM | > 614 nM | > 13200 nM
45 | CCOC(=O)C1=C(C)NC2=C(C(=O)C(C(=O)OCC)C(c3cccc(OC)c3)C2)C1c1ccc(OC)c(OC)c1 (stereo not given) | 376 nM | 167 nM | > 100000 nM
46 | COc1cccc(-c2ccc(O)c(CNCc3ccccc3OC)c2)n1 | 1090 nM | 939 nM | > 10000 nM
47 | CC(NCCN1CCNCC1)c1cc(C(C)(C)C)cc2c1CCC2(C)C (stereo not given) | 598 nM | 586 nM | 6720 nM
48 | COc1ccc(C(=O)Oc2ccccc2-c2nc3cc(C)ccn3c2NC(C)(C)CC(C)(C)C)c(OC)c1 | 1630 nM | 283 nM | > 10000 nM

Row | SMILES | EC50 (Plasmodium falciparum [1]) | EC50 (Plasmodium falciparum [2]) | CC50 [3]
49 | OCC[n+]1c2ccccc2nc2ccc(N3CCOCC3)cc21.[O-][Cl+3]([O-])([O-])[O-] | 243 nM | 56.4 nM | 35000 nM
50 | O=C(CCn1c(=S)oc2ccccc21)N1CCN(c2ccccc2)CC1 | > 1250 nM | 26.7 nM | > 10000 nM
51 | O=C(Cc1cccs1)N1CCC(n2c(Cc3ccc(F)cc3)nc3cccnc32)CC1 | > 12500 nM | 827 nM | > 100000 nM
52 | COc1ccccc1N1CCN(C(=O)Nc2ccc3ccccc3c2)CC1 | > 1280 nM | 315 nM | > 10000 nM
53 | O=C(CCl)Nc1ccc(S(=O)(=O)OCC(F)(F)C(F)F)cc1 | 1730 nM | 1580 nM | 17100 nM
54 | O=C1C(Nc2ccccc2)=C(N2CCCCC2)C(=O)c2ccccc21 | 383 nM | 590 nM | 15000 nM
55 | CCC(=O)Nc1ccc2nc(SCC(=O)Nc3ccc(C(C)=O)cc3)sc2c1 | > 12500 nM | 1110 nM | > 100000 nM
56 | CCNC(=O)N(CCCCOc1ccc(C(C)(C)CC)cc1C(C)(C)CC)Cc1ccc(OC)c(OCc2ccccc2)c1 | 595 nM | 61 nM | > 10000 nM
57 | Cc1ccc(CNC(=O)c2cc3sc(Cl)cc3n2C)cc1 | 3130 nM | 1590 nM | > 100000 nM
58 | CC(=O)C1C(=O)c2c(cccc2[N+](=O)[O-])C1=Nc1ccccc1C (stereo not given) | 643 nM | 777 nM | 51700 nM
59 | COc1ccc(CNCCN2CCN(c3ccc(C)cc3)C[C@@H]2c2ccccc2)cc1 | 909 nM | 125 nM | > 10000 nM
60 | NCCCCCCNc1ccnc2cc(Cl)ccc12 | 288 nM | 132 nM | > 10000 nM
61 | OCC(O)COc1cccc2ccccc12 (stereo not given) | > 1050 nM | < 29.7 nM | > 11200 nM
62 | CN1CCN(c2nc(NN=Cc3cccc(Cl)c3)nc(Nc3ccc([N+](=O)[O-])cc3)n2)CC1 | 500 nM | 290 nM | 43400 nM
63 | CCCCCCOC(=O)C1=C(C)NC(=O)NC1c1ccccc1F (stereo not given) | > 6760 nM | > 8310 nM | > 100000 nM
64 | Cn1cnnc1SCC(=O)Nc1ccccc1C(F)(F)F | > 12500 nM | 1190 nM | > 100000 nM
65 | COc1ccc([C@]23Oc4cc(OC)cc(OC)c4[C@@]2(O)[C@@H](O)C(C(=O)N(C)C)[C@@H]3c2ccccc2)cc1 (stereo not given in full) | > 602 nM | 630 nM | > 10000 nM
66 | Cc1noc(C)c1S(=O)(=O)N(Cc1ccccc1)CC(O)CN1CCC(NC(=O)c2ccc(F)cc2)C1 (stereo not given) | 447 nM | < 12.1 nM | > 10000 nM
67 | CCOC(=O)c1cnc2ccccc2c1Nc1ccc(C(C)=O)cc1 | 343 nM | 386 nM | > 73800 nM
68 | COc1cc(C(=O)NCCc2cc3ccccc3[nH]2)ccc1OC1CCN(CC(c2ccccc2)c2ccccc2)CC1 | 803 nM | 94.4 nM | > 10900 nM
69 | CCCCCc1ccc(OCCCC[n+]2cccc(C)c2)c(CCCCC)c1 | 713 nM | 336 nM | 20500 nM
70 | Cc1ccc(C(C(=O)NC(C)(C)C)N(C(=O)c2ccc(-c3ccccc3)[nH]2)c2ccc(C3CCCCC3)cc2)o1 (stereo not given) | 337 nM | 765 nM | > 10000 nM
